# Experimental data as given in US12116357B2, “Heteroaryl-triazole and heteroaryl-tetrazole compounds as pesticides” (Bayer Aktiengesellschaft, priority 2018, dated 2024).
# Columns and labels:
# Type in all cases: in vivo
# [1] = tested on: Rhipicephalus sanguineus; assay: Rhipicephalus sanguineus in-vitro contact test, adult brown dog ticks
# Experimental: (§1) 9 mg compound is solved in 1 ml acetone and diluted with acetone to the desired concentration. 250 μl of the test solution is filled in 25 ml glass test tubes and homogeneously distributed on the inner walls by rotation and tilting on a shaking device (2 h at 30 rpm). With a compound concentration of 900 ppm, an inner surface of 44.7 cm^2 and a homogeneous distribution, a dose of 5 μg/cm^2 is achieved.
# (§2) After the solvent has evaporated, each test tube is filled with 5-10 adult brown dog ticks (Rhipicephalus sanguineus), closed with a perforated lid and incubated in a lying position at room temperature and relative humidity. After 48 hours efficacy is determined. The ticks are patted on the ground of the tubes and are incubated on a heating plate at 45-50° C. for at most 5 minutes. Immotile or uncoordinated moving ticks, which are not able to escape the heat by climbing upwards, are marked as dead or moribund.
# An efficacy of 100% means all ticks are dead or moribund; 0% means no ticks are dead or moribund.
# [2] = tested on: Boophilus microplus; assay: Boophilus microplus injection test; settings: Rhipicephalus microplus, 168 h, 20 μg/animal, egg deposition after 7 days, read-out: efficacy (infertile eggs)
# Experimental: (§3) • Solvent: dimethyl sulfoxide
# To produce a suitable preparation of active compound, 10 mg of active compound are dissolved in 0.5 ml solvent, and the concentrate is diluted with solvent to the desired concentration.
# Five adult engorged female ticks (Boophilus microplus) are injected with 1 μl compound solution into the abdomen. The ticks are transferred into replica plates and incubated in a climate chamber.
# After 7 days egg deposition of fertile eggs is monitored. Eggs where fertility is not visible are stored in a climate chamber till hatching after about 42 days. An efficacy of 100% means all eggs are infertile; 0% means all eggs are fertile.
# [3] = tested on: Ctenocephalides felis; assay: Ctenocephalides felis oral test; settings: 48 h, 100 ppm in cattle blood, after 2 days
# Experimental: as §3
# To produce a suitable preparation of active compound, 10 mg of active compound are dissolved in 0.5 ml solvent, and the concentrate is diluted with cattle blood to the desired concentration.
# Approximately 20 adult unfed cat fleas (Ctenocephalides felis) are placed in flea chambers. The blood chamber, sealed with parafilm on the bottom, are filled with cattle blood supplied with compound solution and placed on the gauze covered top of the flea chamber, so that the fleas are able to suck the blood. The blood chamber is heated to 37° C. whereas the flea chamber is kept at room temperature.
# After 2 days mortality in % is determined. 100% means all the fleas have been killed; 0% means none of the fleas have been killed.
# [4] = tested on: Myzus persicae; assay: Myzus persicae oral test; settings: 120 h
# Experimental: • Solvent: 100 parts by weight acetone
# To produce a suitable preparation of active compound, 1 part by weight of active compound is mixed with the stated amount of solvent, and the concentrate is diluted with water to the desired concentration. 50 μl compound solution is filled in microtiter plates and 150 μl IPL41 insect medium (33%+15% sugar) is added to obtain a total volume of 200 μl per well. Afterwards the plates are sealed with parafilm through which a mixed population of the green peach aphid (Myzus persicae) can suck on the compound preparation.
# (§4) After 5 days mortality in % is determined. 100% means all aphids have been killed and 0% means none of the aphids have been killed.
# [5] = tested on: Nezara viridula; assay: Nezara viridula spray test; settings: 96 h
# Experimental: (§5) • Solvent: 78.0 parts by weight of acetone • 1.5 parts by weight of dimethylformamide • Emulsifier: alkylarylpolyglycol ether
# (§6) To produce a suitable preparation of active compound, 1 part by weight of active compound is mixed with the stated amount of solvent, and the concentrate is diluted with water, containing an emulsifier concentration of 1000 ppm, to the desired concentration. Further test concentrations are prepared by dilution with emulsifier containing water.
# Barley plants (Hordeum vulgare) infested with larvae of the southern green stink bug (Nezara viridula) are sprayed with a test solution containing the desired concentration of the active ingredient.
# After 4 days mortality in % is determined. 100% means all the stink bugs have been killed; 0% means none of the stink bugs have been killed.
# [6] = tested on: Phaedon cochleariae; assay: Phaedon cochleariae spray test; settings: 168 h, after 7 days
# Experimental: as §5
# as §6, with “solvents” for “solvent,”, “and” for “and the concentrate”
# Chinese cabbage (Brassica pekinensis) leaf disks are sprayed with a preparation of the active ingredient of the desired concentration. Once dry, the leaf disks are infested with mustard beetle larvae (Phaedon cochleariae).
# After 7 days mortality in % is determined. 100% means all beetle larvae have been killed and 0% means none of the beetle larvae have been killed.
# [7] = tested on: Spodoptera frugiperda; assay: Spodoptera frugiperda spray test; settings: 168 h
# Experimental: (§7) • Solvent: 78.0 parts by weight acetone • 1.5 parts by weight dimethylformamide • Emulsifier: alkylarylpolyglycol ether
# as §6, with “solvents” for “solvent,”, “and” for “and the concentrate”
# Maize (Zea mays) leaf sections are sprayed with a preparation of the active ingredient of the desired concentration. Once dry, the leaf sections are infested with fall armyworm larvae (Spodoptera frugiperda).
# After 7 days mortality in % is determined. 100% means all caterpillars have been killed and 0% means none of the caterpillars have been killed.
# [8] = tested on: Myzus persicae; assay: Myzus persicae spray test; settings: 120 h
# Experimental: as §7
# as §6, with “solvents” for “solvent,”, “and” for “and the concentrate”
# Chinese cabbage (Brassica pekinensis) leaf disks infected with all instars of the green peach aphid (Myzus persicae), are sprayed with a preparation of the active ingredient of the desired concentration.
# as §4
# [9] = tested on: Nilaparvata lugens; assay: Nilaparvata lugens spray test; settings: 96 h
# Experimental: as §5
# as §6, with “solvents” for “solvent,”, “and” for “and the concentrate”
# Rice plants (Oryza sativa) are sprayed with a preparation of the active ingredient of the desired concentration and the plants are infested with the brown planthopper (Nilaparvata lugens).
# After 4 days mortality in % is determined. 100% means all planthoppers have been killed and 0% means none of the planthoppers have been killed.
# [10] = tested on: Aedes aegypti strain MONHEIM; assay: Aedes aegypti test (surface treatment & contact assay); settings: 24 hours after contact, read-out: efficacy (mortality); for mortality at 20 mg/m2: surface concentration 20 mg/m^2, 30 min exposure; for mortality at 4 mg/m2: surface concentration 4 mg/m^2, 30 min exposure
# Experimental: (§8) • Solvent: Aceton+2000 ppm rapeseed oil methyl ester (RME)
# (§9) In order to produce a sufficient, active ingredient containing solution it is necessary to solve the test compound in the solvent-mix (acetone at 2 mg/ml/RME 2000 ppm). This solution is pipetted onto a glazed tile and after evaporation of the acetone, adult mosquitoes of the species Aedes aegypti strain MONHEIM are placed onto the dried surface. The exposure time is 30 minutes.
# (§10) Mortality in percent (%) is determined 24 hours after contact of the insects to the treated surface. 100% mortality means that all tested insects are dead, whereas 0% means that no insect died.
# [11] = tested on: Anopheles funestus strain FUMOZ-R; assay: Anopheles funestus test (surface treatment & contact assay); settings: 24 hours after contact, read-out: efficacy (mortality); for mortality at 20 mg/m2: surface concentration 20 mg/m^2, 30 min exposure
# Experimental: as §8
# as §9, with “Anopheles funestus” for “Aedes aegypti”, “FUMOZ-R (Hunt et al., Med. Vet. Entomol. 2005 September; 19(3): 271-275)” for “MONHEIM”
# as §10
# [12] = tested on: Musca domestica strain WHO-N; assay: Musca domestica test (surface treatment & contact assay); settings: 24 hours after contact, read-out: efficacy (mortality); for mortality at 4 mg/m2: surface concentration 4 mg/m^2, 30 min exposure; for mortality at 20 mg/m2: surface concentration 20 mg/m^2, 30 min exposure
# Experimental: as §8
# as §9, with “flies” for “mosquitoes”, “Musca domestica” for “Aedes aegypti”, “WHO-N” for “MONHEIM”
# as §10
# [13] = tested on: Ctenocephalides felis; assay: Ctenocephalides felis in-vitro contact test, adult cat flea; settings: 5 μg/cm^2, after 48 hours, read-out: efficacy (fleas dead or moribund)
# Experimental: as §1
# as §2, with “cat fleas (Ctenocephalides felis),” for “brown dog ticks (Rhipicephalus sanguineus),”, “fleas” for “ticks”, “fleas,” for “ticks,”
# An efficacy of 100% means all fleas are dead or moribund; 0% means no fleas are dead or moribund.
# [14] = tested on: Culex quinquefasciatus strain P00; assay: Culex quinquefasciatus test (surface treatment & contact assay); settings: 24 hours after contact, read-out: efficacy (mortality); for mortality at 20 mg/m2: surface concentration 20 mg/m^2, 30 min exposure
# Experimental: as §8
# as §9, with “Culex quinquefasciatus” for “Aedes aegypti”, “P00” for “MONHEIM”
# as §10
# [15] = surface concentration 4 mg/m^2, 30 min exposure
SMILES,"efficacy (ticks dead or moribund) ([1]; 1 μg/cm^2, after 48 hours)","efficacy (ticks dead or moribund) ([1]; 5 μg/cm^2, after 48 hours)",pest or weed control at 0.02 mg [2],mortality at 100 ppm [3],mortality at 4 ppm [4],mortality at 20 ppm [4],mortality at 500 g/ha [5],mortality at 500 g/ha [6],mortality at 500 g/ha [7],mortality at 500 g/ha [8],mortality at 500 g/ha [9],mortality at 20 mg/m2 [10],"mortality at 4 mg/m2 [11, 15]",mortality at 20 mg/m2 [11],mortality at 4 mg/m2 [12],pest or weed control at 5 µg/cm2 [13],mortality at 4 mg/m2 [10],mortality at 20 mg/m2 [14],mortality at 20 mg/m2 [12],"mortality at 4 mg/m2 [14, 15]"
COCCN(C(=O)c1cc(Cl)cc(C(F)(F)F)c1)C(C)c1ncnn1-c1ncccn1 (centres unmarked) [Example I-005],80%,80%,100%,100%,100%,100%,90%,100%,100%,–,–,–,–,–,–,–,–,–,–,–
CC(c1ncnn1-c1ncccn1)N(CC1CSC1)C(=O)c1cc(Cl)cc(C(F)(F)F)c1 (centres unmarked) [Example I-011],–,–,95%,100%,100%,100%,100%,100%,100%,100%,100%,90 to 100%,85 to 100%,85 to 100%,90 to 100%,–,–,–,–,–
CC(c1ncnn1-c1ncccn1)N(CC1OCCO1)C(=O)c1cc(Cl)cc(C(F)(F)F)c1 (centres unmarked) [Example I-023],–,–,100%,100%,100%,–,–,–,100%,100%,–,–,–,85 to 100%,–,80%,–,–,–,–
CON(C(=O)c1cccc(C(F)(F)F)c1)C(C)c1ncnn1-c1ncccn1 (centres unmarked) [Example I-028],80%,100%,100%,–,–,–,100%,–,–,–,100%,–,–,–,–,–,–,–,–,–
CCON(C(=O)c1cccc(C(F)(F)F)c1)C(C)c1ncnn1-c1ncccn1 (centres unmarked) [Example I-029],–,80%,100%,80%,100%,–,100%,–,–,–,–,–,–,–,–,100%,–,–,–,–
CC(c1ncnn1-c1ncccn1)N(Cc1ccc(Cl)nc1)C(=O)c1cc(Cl)cc(C(F)(F)F)c1 (centres unmarked) [Example I-030],–,–,100%,100%,100%,–,100%,–,100%,100%,100%,90 to 100%,–,85 to 100%,90 to 100%,90%,80 to 100%,90 to 100%,90 to 100%,–
COCCN(C(=O)c1cc(Cl)cc(S(C)(=O)=O)c1)C(C)c1ncnn1-c1ncccn1 (centres unmarked) [Example I-031],–,–,100%,100%,100%,–,100%,–,–,100%,100%,–,–,85 to 100%,–,80%,–,–,–,–
CSCCN(C(=O)c1cc(Cl)cc(S(C)(=O)=O)c1)C(C)c1ncnn1-c1ncccn1 (centres unmarked) [Example I-032],–,–,–,–,100%,–,100%,–,–,90%,100%,–,–,–,–,100%,–,–,–,–
CSCCN(C(=O)c1cc(Cl)cc(C(F)(F)F)c1)C(C)c1ncnn1-c1ccc(C#N)cn1 (centres unmarked) [Example I-033],–,–,–,–,100%,–,100%,–,100%,90%,–,90 to 100%,–,85 to 100%,90 to 100%,100%,80 to 100%,90 to 100%,90 to 100%,–
CSCCN(C(=O)c1cc(C(F)(F)F)cc(C(F)(F)F)c1)C(C)c1ncnn1-c1ccc(C#N)cn1 (centres unmarked) [Example I-034],–,–,–,–,100%,–,100%,–,100%,100%,–,90 to 100%,–,85 to 100%,90 to 100%,100%,–,90 to 100%,90 to 100%,85 to 100%
